Measurements taken from ChEMBL document CHEMBL4229425, “Discovery and characterization of N-(1,3-dialkyl-1H-indazol-6-yl)-1H-pyrazolo[4,3-b]pyridin-3-amine scaffold as mGlu4 positive allosteric modulators that mitigate CYP1A2 induction liability” (Bioorg Med Chem Lett, 2018).
pEC50, pIC50: −log10 of the molar value.

How the values were obtained:
[1] = biological target: T1, Metabotropic glutamate receptor 4 (Homo sapiens, UniProt Q14833); experiment: Positive allosteric modulation of human mGluR4 expressed in CHO cells co-expressing Gqi5 assessed as increase in glutamate-induced calcium flux preincubated for 2.5 mins followed by glutamate addition by Fluo-4-AM dye based fluorescence assay; format: functional, cell-based; details: for pEC50: read-out: EC50; for EC50: cho
[2] = biological target: T1, Metabotropic glutamate receptor 4; experiment: Positive allosteric modulation of human mGluR4 expressed in CHO cells co-expressing Gqi5 assessed as increase in glutamate-induced calcium flux at 30 uM preincubated for 2.5 mins followed by glutamate addition by Fluo-4-AM dye based fluorescence assay relative to PHCCC; format: functional, cell-based
[3] = Fraction unbound in rat plasma; format: ADME, cell-free
[4] = Fraction unbound in human plasma; format: ADME, cell-free
Cytochrome P450 1A2 = biological target: T2, Cytochrome P450 1A2 (Homo sapiens, UniProt P05177); experiment: Inhibition of CYP1A2 in human liver microsomes; format: ADME
T2 sequence (P05177 whole entry): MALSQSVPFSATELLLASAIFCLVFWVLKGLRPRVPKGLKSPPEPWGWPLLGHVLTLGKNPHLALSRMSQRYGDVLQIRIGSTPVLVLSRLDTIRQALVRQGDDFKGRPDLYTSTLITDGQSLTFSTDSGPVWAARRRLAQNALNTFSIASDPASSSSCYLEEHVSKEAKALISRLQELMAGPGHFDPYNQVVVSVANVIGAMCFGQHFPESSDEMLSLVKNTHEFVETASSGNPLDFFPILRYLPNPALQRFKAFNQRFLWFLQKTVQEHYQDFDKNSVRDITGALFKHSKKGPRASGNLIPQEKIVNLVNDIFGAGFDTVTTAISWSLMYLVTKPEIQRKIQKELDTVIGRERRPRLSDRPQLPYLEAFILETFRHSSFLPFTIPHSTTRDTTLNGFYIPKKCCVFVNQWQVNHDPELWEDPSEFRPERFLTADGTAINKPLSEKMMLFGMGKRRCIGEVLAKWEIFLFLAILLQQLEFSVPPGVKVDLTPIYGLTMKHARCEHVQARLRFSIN

[5] = Clearance in rat liver microsomes; format: ADME, microsome
[6] = biological target: T3, CYP1A2 (induction through the aryl hydrocarbon receptor, AhR) (Homo sapiens, UniProt P35869); experiment: Activation of human AhR assessed as induction of CYP1A2 relative to control; format: ADME; details: read-out: FC
T3 sequence (P35869 whole entry): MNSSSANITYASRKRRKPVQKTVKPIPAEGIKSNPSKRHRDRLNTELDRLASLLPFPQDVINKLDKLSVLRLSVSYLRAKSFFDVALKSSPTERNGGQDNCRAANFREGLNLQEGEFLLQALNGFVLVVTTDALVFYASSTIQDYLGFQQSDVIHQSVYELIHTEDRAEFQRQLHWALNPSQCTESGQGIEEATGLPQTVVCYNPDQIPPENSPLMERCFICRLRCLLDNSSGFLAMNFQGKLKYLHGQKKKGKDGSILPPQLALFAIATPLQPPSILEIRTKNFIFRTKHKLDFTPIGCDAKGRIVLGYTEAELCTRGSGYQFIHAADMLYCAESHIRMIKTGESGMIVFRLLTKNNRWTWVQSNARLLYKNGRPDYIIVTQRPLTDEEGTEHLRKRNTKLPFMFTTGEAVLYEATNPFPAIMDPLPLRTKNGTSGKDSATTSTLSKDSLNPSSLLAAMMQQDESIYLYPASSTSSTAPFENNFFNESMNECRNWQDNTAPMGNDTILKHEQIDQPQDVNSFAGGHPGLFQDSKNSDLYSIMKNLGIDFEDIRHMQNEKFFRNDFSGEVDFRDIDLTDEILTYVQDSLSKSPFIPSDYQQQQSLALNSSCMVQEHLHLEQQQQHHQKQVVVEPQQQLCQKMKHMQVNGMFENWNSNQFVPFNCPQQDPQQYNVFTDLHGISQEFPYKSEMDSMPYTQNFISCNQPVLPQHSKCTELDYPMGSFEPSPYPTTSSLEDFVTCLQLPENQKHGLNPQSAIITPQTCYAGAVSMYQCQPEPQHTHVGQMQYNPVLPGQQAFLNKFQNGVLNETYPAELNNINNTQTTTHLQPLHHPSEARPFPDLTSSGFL

T1 sequence (Q14833 whole entry): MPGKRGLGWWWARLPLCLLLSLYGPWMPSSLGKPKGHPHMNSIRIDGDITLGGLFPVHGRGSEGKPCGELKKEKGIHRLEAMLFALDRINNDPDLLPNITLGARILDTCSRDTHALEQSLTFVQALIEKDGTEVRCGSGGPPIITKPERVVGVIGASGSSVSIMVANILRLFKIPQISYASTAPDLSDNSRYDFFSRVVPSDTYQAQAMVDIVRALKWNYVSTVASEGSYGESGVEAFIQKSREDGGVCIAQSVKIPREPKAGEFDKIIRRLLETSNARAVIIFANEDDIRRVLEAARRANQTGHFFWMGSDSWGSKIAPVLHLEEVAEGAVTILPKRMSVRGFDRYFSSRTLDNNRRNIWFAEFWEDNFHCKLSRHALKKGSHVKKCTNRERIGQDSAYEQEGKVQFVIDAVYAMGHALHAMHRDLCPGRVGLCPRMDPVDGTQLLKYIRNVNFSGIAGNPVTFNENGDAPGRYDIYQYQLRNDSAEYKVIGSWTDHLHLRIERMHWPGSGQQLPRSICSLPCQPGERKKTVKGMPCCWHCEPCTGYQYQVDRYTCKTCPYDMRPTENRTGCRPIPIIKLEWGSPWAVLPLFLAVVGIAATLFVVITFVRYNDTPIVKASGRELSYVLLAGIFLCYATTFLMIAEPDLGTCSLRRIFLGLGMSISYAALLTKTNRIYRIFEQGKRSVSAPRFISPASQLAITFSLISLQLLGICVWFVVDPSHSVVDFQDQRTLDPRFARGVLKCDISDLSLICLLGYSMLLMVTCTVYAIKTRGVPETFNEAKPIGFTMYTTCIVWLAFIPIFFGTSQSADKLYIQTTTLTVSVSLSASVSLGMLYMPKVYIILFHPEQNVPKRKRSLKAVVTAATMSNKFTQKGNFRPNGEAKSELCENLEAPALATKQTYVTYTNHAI

Row | Compound | pEC50 [1] | Emax [2] [%] | also measured
1 | CCn1nc(C2CC2)c2ccc(Nc3n[nH]c4cccnc34)cc21 | 5.92 | 36.2 | Emax ([2]; tested as the 2H-labelled form): 97.4%
2 | Cn1nc(C2(C)CC2)c2ccc(Nc3n[nH]c4cccnc34)cc21 | 7.17 | 83.7 | –
3 | CCn1nc(Cl)c2cc(Nc3n[nH]c4cccnc34)ccc21 | 6.09 | 67 | –
4 | Cn1nc(C2CC2)c2ccc(Nc3n[nH]c4nccnc34)cc21 | 7.70 | 101 | fraction unbound [3]: 0.035; fraction unbound [4]: 0.03; pIC50 (Cytochrome P450 1A2): 6.32; CLhep predicted [5]: 22.4 mL/min/kg; fold induction [6]: 2.3
5 | Cn1nc(C2CC2)c2ccc(Nc3n[nH]c4ncccc34)cc21 | 7.36 | 94.8 | fraction unbound [3]: 0.031; fraction unbound [4]: 0.03; pIC50 (Cytochrome P450 1A2): 5.59; CLhep predicted [5]: 16.1 mL/min/kg; fold induction [6]: 2.6
6 | CC(C)Oc1nn(C)c2cc(Nc3n[nH]c4cccnc34)ccc12 | – | 70.9 | –
7 | CN1CCC(Oc2nn(C)c3cc(Nc4n[nH]c5cccnc45)ccc23)CC1 | 5.73 | 88.3 | –
8 | Cc1nn(CC2CCC2)c2ccc(Nc3n[nH]c4cccnc34)cc12 | 7.33 | 93.2 | –
9 | Cc1nn(C(C)C)c2cc(Nc3n[nH]c4cccnc34)ccc12 | 5.00 | 62 | –
10 | Cn1nc(C(=O)NC2CC(F)C2)c2ccc(Nc3n[nH]c4cccnc34)cc21 (configuration not stated) | 6.10 | 74 | –
11 | Cn1cnc2ccc(Nc3n[nH]c4cccnc34)cc21 | < 5.00 | 54.6 | –
12 | Cn1nc(CC(F)(F)F)c2ccc(Nc3n[nH]c4cccnc34)cc21 | 7.02 | 62.7 | –
13 | Cn1nc(C(=O)NC2CCC2)c2ccc(Nc3n[nH]c4cccnc34)cc21 | 6.19 | 70.3 | –
14 | Cc1nn(C)c2ccc(Nc3n[nH]c4cccnc34)cc12 | 6.46 | 105 | –
15 | Cn1ncc2ccc(Nc3n[nH]c4cccnc34)cc21 | 6.59 | 105 | fraction unbound [3]: 0.061; fraction unbound [4]: 0.093; pIC50 (Cytochrome P450 1A2): 6.96; CLhep predicted [5]: 10.7 mL/min/kg; fold induction [6]: 154
16 | Cc1nnc2cc(Nc3n[nH]c4cccnc34)ccn12 | – | – | EC50 [1]: Not Active
17 | Cn1nc(C2(C)CC2)c2ccc(Nc3n[nH]c4ncccc34)cc21 | 6.89 | 84 | –
18 | Cc1nn(C)c2cc(Nc3n[nH]c4cccnc34)ccc12 | 7.11 | 98 | fraction unbound [3]: 0.089; fraction unbound [4]: 0.058; pIC50 (Cytochrome P450 1A2): > 7.00; CLhep predicted [5]: 18.6 mL/min/kg; fold induction [6]: 25
19 | Cn1nc(OC2CCOCC2)c2ccc(Nc3n[nH]c4cccnc34)cc21 | – | 85.1 | –
20 | CC(C)COc1nn(C)c2cc(Nc3n[nH]c4cccnc34)ccc12 | – | 86.7 | –
21 | c1cnc2c(Nc3ccc4c(C5CC5)n[nH]c4c3)n[nH]c2c1 | 6.34 | 76.5 | fraction unbound [3]: 0.014; fraction unbound [4]: 0.031; pIC50 (Cytochrome P450 1A2): 6.55; CLhep predicted [5]: 30.8 mL/min/kg; fold induction [6]: 13.5
22 | CCc1nn(C)c2cc(Nc3n[nH]c4cccnc34)ccc12 | 7.42 | 94.5 | –
23 | Cc1cc(COc2nn(C)c3cc(Nc4n[nH]c5cccnc45)ccc23)on1 | – | 107 | –

Row | Compound | pEC50 [1] | Emax [2] [%] | also measured
24 | Cn1ncc2cc(Nc3n[nH]c4cccnc34)ccc21 | 6.06 | 110 | fraction unbound [3]: 0.127; fraction unbound [4]: 0.118; pIC50 (Cytochrome P450 1A2): 6.28; CLhep predicted [5]: 40.1 mL/min/kg; fold induction [6]: 28
25 | Cn1nc(C(=O)N2CCC(F)(F)C2)c2ccc(Nc3n[nH]c4cccnc34)cc21 | 6.54 | 57.8 | –
26 | CCn1nc(C)c2cc(Nc3n[nH]c4cccnc34)ccc21 | 7.02 | 78.3 | –
27 | Fc1ccc(Nc2n[nH]c3cccnc23)cc1Cl | – | – | fraction unbound [3]: 0.028; fraction unbound [4]: 0.017; pIC50 (Cytochrome P450 1A2): > 7.00; CLhep predicted [5]: 12.1 mL/min/kg
28 | Cn1nc(OCC2CCCCO2)c2ccc(Nc3n[nH]c4cccnc34)cc21 (configuration not stated) | – | 100 | –
29 | FC(F)(F)Cn1nc(C2CC2)c2ccc(Nc3n[nH]c4cccnc34)cc21 | – | – | EC50 [1]: Not Active
30 | Cc1nn(C2CCCC2)c2ccc(Nc3n[nH]c4cccnc34)cc12 | 6.58 | 93.8 | –
31 | CCn1nc(C2CC2)c2ccc(Nc3n[nH]c4ncccc34)cc21 | – | – | Emax ([2]; tested as the 2H-labelled form): 75.7%
32 | Cn1nc(C(F)(F)F)c2ccc(Nc3n[nH]c4cccnc34)cc21 | 6.92 | 77.5 | –
33 | Cn1nc(C2(C)CC2)c2ccc(Nc3n[nH]c4nccnc34)cc21 | 7.60 | 94.8 | –
34 | Cn1nc(C2CC2)c2ncc(Nc3n[nH]c4cccnc34)cc21 | 6.33 | 75 | –
35 | Cn1nc(C(=O)N2CCCC2)c2ccc(Nc3n[nH]c4cccnc34)cc21 | 6.08 | 41.6 | –
36 | Cn1ccc2cc(Nc3n[nH]c4cccnc34)ccc21 | 5.44 | 83.8 | –
37 | Cn1nc(C(=O)N2CC[C@H](F)C2)c2ccc(Nc3n[nH]c4cccnc34)cc21 | 6.12 | 55.5 | –
38 | Cc1nnc2ccc(Nc3n[nH]c4cccnc34)cn12 | – | – | EC50 [1]: Not Active
39 | Cn1nc(C(=O)N2CC[C@@H](F)C2)c2ccc(Nc3n[nH]c4cccnc34)cc21 | 6.04 | 41.9 | –
40 | [2H]C([2H])([2H])Cn1nc(C2CC2)c2ccc(Nc3n[nH]c4ncccc34)cc21 | 6.80 | – | –
41 | Cc1c2ccc(Nc3n[nH]c4cccnc34)cc2nn1C1CCCC1 | – | – | EC50 [1]: Not Active
42 | Cn1nnc2ccc(Nc3n[nH]c4cccnc34)cc21 | 5.84 | 72.4 | –
43 | Cn1nc(C(=O)NC2CC(F)(F)C2)c2ccc(Nc3n[nH]c4cccnc34)cc21 | 6.94 | 52.2 | –
44 | [2H]C([2H])([2H])Cn1nc(C2CC2)c2ccc(Nc3n[nH]c4cccnc34)cc21 | 7.44 | – | –
45 | Cc1c2ccc(Nc3n[nH]c4cccnc34)cc2nn1CC1CCC1 | – | – | EC50 [1]: Not Active
46 | Cn1nc(C(=O)N2CCC(F)(F)CC2)c2ccc(Nc3n[nH]c4cccnc34)cc21 | 6.30 | 89.5 | –
